Test results published in PMC9090415, “Discovery of small molecule inhibitors of Plasmodium falciparum apicoplast DNA polymerase” (Journal of Enzyme Inhibition and Medicinal Chemistry, 2022).

Molecular target: P. falciparum apicoplast DNA polymerase (Pf-apPOL) (Plasmodium falciparum, UniProt Q8ILY1)
Test: Fluorescence-based high-throughput DNA polymerase assay (molecular beacon), primary screen and dose-response
Format: biochemical
Settings: for DNA Pol: 90 min, 10 µM; for % inhibition apPOL 180' 2.5 / % inhibition apPOL 180' 5 / % inhibition apPOL 180' 10 / % inhibition apPOL 180' 20 / % inhibition apPOL 180' 40 / % inhibition apPOL 180' 80: read at 180'
Outline: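 Single-point screening used 10 µM compound with 20 nM polymerase, 20 nM hairpin substrate and 6 µM dNTPs for 90 min at 25 °C. Confirmatory titrations (2.5–80 µM) followed fluorescence at three times, and IC50 was derived from a fit including a cooperativity term n.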

[1] = "DNA Pol" of the 186 hits list (screen value)

Chain of P. falciparum apicoplast DNA polymerase (Pf-apPOL) (Q8ILY1 entry or part of it): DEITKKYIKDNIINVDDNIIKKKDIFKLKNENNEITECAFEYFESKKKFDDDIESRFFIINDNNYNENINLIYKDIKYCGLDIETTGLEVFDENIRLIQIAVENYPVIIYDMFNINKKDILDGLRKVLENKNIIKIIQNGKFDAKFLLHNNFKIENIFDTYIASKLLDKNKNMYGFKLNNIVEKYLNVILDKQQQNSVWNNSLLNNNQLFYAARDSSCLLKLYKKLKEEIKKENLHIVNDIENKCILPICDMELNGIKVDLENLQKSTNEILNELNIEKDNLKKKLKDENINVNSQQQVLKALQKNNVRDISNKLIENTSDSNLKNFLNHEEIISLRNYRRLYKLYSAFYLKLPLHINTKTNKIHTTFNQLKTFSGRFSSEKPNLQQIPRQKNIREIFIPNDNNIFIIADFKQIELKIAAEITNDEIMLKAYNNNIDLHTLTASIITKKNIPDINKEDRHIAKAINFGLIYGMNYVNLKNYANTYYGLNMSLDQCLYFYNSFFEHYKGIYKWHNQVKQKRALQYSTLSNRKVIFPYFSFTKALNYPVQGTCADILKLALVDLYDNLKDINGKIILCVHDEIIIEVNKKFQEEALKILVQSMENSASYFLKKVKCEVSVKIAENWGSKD

## O=C(c1ccccc1)N1CCc2c(nc3cc(-c4ccccc4)[nH]n3c2=O)C1 [Molecule 30, O=C(N1CCc2c(C1)nc1n(c2=O)[nH]c(c1)c1ccccc1)c1ccccc1]
186 hits, DNA Pol (screen value), unit not given
  DNA Pol: 51
'DNA Pol' (screen value), unit not given
  DNA Pol: 51
DRC-1, read at 10', concentration 2.5
  % inhibition Apo pol 10' 2.5: 12.9086%
DRC-1, read at 10', concentration 5
  % inhibition Apo pol 10' 5: 15.849%
DRC-1, read at 10', concentration 10
  % inhibition Apo pol 10' 10: 54.0092%
DRC-1, read at 10', concentration 20
  % inhibition Apo pol 10' 20: 76.4447%
DRC-1, read at 10', concentration 40
  % inhibition Apo pol 10' 40: 86.2157%
DRC-1, read at 10', concentration 80
  % inhibition Apo pol 10' 80: 78.4105%
DRC-1, read at 90', concentration 2.5
  % inhibition Apol 90' 2.5: 4.897%
DRC-1, read at 90', concentration 5
  % inhibition Apol 90' 5: 3.579%
DRC-1, read at 90', concentration 10
  % inhibition Apol 90' 10: 37.2459%
DRC-1, read at 90', concentration 20
  % inhibition Apol 90' 20: 61.0288%
DRC-1, read at 90', concentration 40
  % inhibition Apol 90' 40: 75.6472%
DRC-1, read at 90', concentration 80
  % inhibition Apol 90' 80: 72.6232%
DRC-1, concentration 2.5
  % inhibition apPOL 180' 2.5: 0.553%
DRC-1, concentration 5
  % inhibition apPOL 180' 5: -2.049%
DRC-1, concentration 10
  % inhibition apPOL 180' 10: 22.4217%
DRC-1, concentration 20
  % inhibition apPOL 180' 20: 42.2339%
DRC-1, concentration 40
  % inhibition apPOL 180' 40: 59.6497%
DRC-1, concentration 80
  % inhibition apPOL 180' 80: 57.0627%
DRC-2, concentration 5
  % inhibition Apo pol 5': 18%
  % inhibition ApPOL 90': 18%
  % inhibition apPOL 180' 5: 10%
DRC-2, concentration 10
  % inhibition Apo pol 5': 37%
  % inhibition apPOL 180' 10: 29%
DRC-2, concentration 20
  % inhibition Apo pol 5': 50%
  % inhibition Apol 40': 61%
  % inhibition ApPOL 90': 60%
  % inhibition apPOL 180': 50%
  % inhibition apPOL 180' 20: 50%
DRC-2, concentration 80
  % inhibition Apo pol 5': 37%
  % inhibition ApPOL 90': 60%
  % inhibition apPOL 180' 80: 54%
DRC-2, concentration 40
  % inhibition ApPOL 90': 61%
  % inhibition apPOL 180' 40: 52%
DRC-2, read at 5', concentration 2.5
  % inhibition Apo pol 5' 2.5: 6.51%
DRC-2, read at 5', concentration 5
  % inhibition Apo pol 5' 5: 18%
DRC-2, read at 5', concentration 10
  % inhibition Apo pol 5' 10: 37%
DRC-2, read at 5', concentration 20
  % inhibition Apo pol 5' 20: 50%
DRC-2, read at 5', concentration 40
  % inhibition Apo pol 5' 40: 48%
DRC-2, read at 5', concentration 80
  % inhibition Apo pol 5' 80: 37%
DRC-2, read at 40', concentration 2.5
  % inhibition Apol 40' 2.5: 6.57%
DRC-2, read at 40', concentration 5
  % inhibition Apol 40' 5: 20%
DRC-2, read at 40', concentration 10
  % inhibition Apol 40' 10: 41%
DRC-2, read at 40', concentration 20
  % inhibition Apol 40' 20: 61%
DRC-2, read at 40', concentration 40
  % inhibition Apol 40' 40: 62%
DRC-2, read at 40', concentration 80
  % inhibition Apol 40' 80: 57%
DRC-2, read at 90', concentration 2.5
  % inhibition ApPOL 90' 2.5: 5%
DRC-2, read at 90', concentration 5
  % inhibition ApPOL 90' 5: 18%
DRC-2, read at 90', concentration 10
  % inhibition ApPOL 90' 10: 39%
DRC-2, read at 90', concentration 20
  % inhibition ApPOL 90' 20: 60%
DRC-2, read at 90', concentration 40
  % inhibition ApPOL 90' 40: 61%
DRC-2, read at 90', concentration 80
  % inhibition ApPOL 90' 80: 60%
DRC-2, concentration 2.5
  % inhibition apPOL 180' 2.5: 0.84%

## Cc1ccc(C(=O)/C=C/C=C/C=C/N(C)C)o1 [Molecule 96, CN(/C=C/C=C/C=C/C(=O)c1ccc(o1)C)C]
[1]
  DNA Pol: 48
DRC-1, concentration 2.5
  % inhibition Apo pol 10': 21.8998%
  % inhibition Apol 90': 11.0382%
  % inhibition apPOL 180': 1.481%
DRC-1, concentration 5
  % inhibition Apo pol 10': 52.2247%
  % inhibition Apol 90': 37.6511%
  % inhibition apPOL 180': 22.6897%
DRC-1, concentration 10
  % inhibition Apo pol 10': 71.8634%
  % inhibition Apol 90': 62.1527%
  % inhibition apPOL 180': 46.7432%
DRC-1, concentration 20
  % inhibition Apo pol 10': 65.9561%
  % inhibition Apol 90': 58.9151%
  % inhibition apPOL 180': 45.7545%
DRC-1, concentration 40
  % inhibition Apo pol 10': 68.0612%
  % inhibition Apol 90': 72.0375%
  % inhibition apPOL 180': 68.8362%
DRC-1, concentration 80
  % inhibition Apo pol 10': 57.2941%
  % inhibition Apol 90': 69.2174%
  % inhibition apPOL 180': 73.043%
DRC-2, concentration 2.5
  % inhibition Apo pol 5': 1.29%
  % inhibition Apol 40': 3.43%
  % inhibition ApPOL 90': 1%
  % inhibition apPOL 180': -4.64%
DRC-2, concentration 5
  % inhibition Apo pol 5': 13%
  % inhibition Apol 40': 26%
  % inhibition ApPOL 90': 23%
  % inhibition apPOL 180': 13%
DRC-2, concentration 10
  % inhibition Apo pol 5': 21%
  % inhibition Apol 40': 44%
  % inhibition ApPOL 90': 44%
  % inhibition apPOL 180': 36%
DRC-2, concentration 20
  % inhibition Apo pol 5': 2.29%
  % inhibition Apol 40': 42%
  % inhibition ApPOL 90': 47%
  % inhibition apPOL 180': 47%
DRC-2, concentration 40
  % inhibition Apo pol 5': -21%
  % inhibition Apol 40': 32%
  % inhibition ApPOL 90': 44%
  % inhibition apPOL 180': 51%
DRC-2, concentration 80
  % inhibition Apo pol 5': -45%
  % inhibition Apol 40': 20%
  % inhibition ApPOL 90': 38%
  % inhibition apPOL 180': 53%
Primary screen value, DNA Pol
  DNA Pol: 48

## Cc1ccc(NC(=O)Cn2ccc3c(=O)[nH]ccc32)cc1F [Molecule 48, O=C(Cn1ccc2c1cc[nH]c2=O)Nc1ccc(c(c1)F)C]
[1]
  DNA Pol: 27
DRC-1, concentration 2.5
  % inhibition Apo pol 10': 0.4313%
  % inhibition Apol 90': -2.985%
  % inhibition apPOL 180': -5.068%
DRC-1, concentration 5
  % inhibition Apo pol 10': 4.695%
  % inhibition Apol 90': -1.632%
  % inhibition apPOL 180': -4.79%
DRC-1, concentration 10
  % inhibition Apo pol 10': 32.4815%
  % inhibition Apol 90': 21.1063%
  % inhibition apPOL 180': 10.5149%
DRC-1, concentration 20
  % inhibition Apo pol 10': 59.9779%
  % inhibition Apol 90': 47.267%
  % inhibition apPOL 180': 31.5724%
DRC-1, concentration 40
  % inhibition Apo pol 10': 70.0783%
  % inhibition Apol 90': 60.3661%
  % inhibition apPOL 180': 45.3289%
DRC-1, concentration 80
  % inhibition Apo pol 10': 79.5186%
  % inhibition Apol 90': 79.6602%
  % inhibition apPOL 180': 73.7679%
DRC-2, concentration 2.5
  % inhibition Apo pol 5': -5.29%
  % inhibition Apol 40': -4.56%
  % inhibition ApPOL 90': -6.53%
  % inhibition apPOL 180': -10%
DRC-2, concentration 5
  % inhibition Apo pol 5': 3%
  % inhibition Apol 40': 4%
  % inhibition ApPOL 90': 2.25%
  % inhibition apPOL 180': -4%
DRC-2, concentration 10
  % inhibition Apo pol 5': 22%
  % inhibition Apol 40': 23%
  % inhibition ApPOL 90': 21%
  % inhibition apPOL 180': 7%
DRC-2, concentration 20
  % inhibition Apo pol 5': 44%
  % inhibition Apol 40': 57%
  % inhibition ApPOL 90': 56%
  % inhibition apPOL 180': 49%
DRC-2, concentration 40
  % inhibition Apo pol 5': 46%
  % inhibition Apol 40': 65%
  % inhibition ApPOL 90': 67%
  % inhibition apPOL 180': 65%
DRC-2, concentration 80
  % inhibition Apo pol 5': 38%
  % inhibition Apol 40': 62%
  % inhibition ApPOL 90': 67%
  % inhibition apPOL 180': 69%
Primary screen value, DNA Pol
  DNA Pol: 27

## CC1(C)CC(=O)C2=C(C1)OC1=C(C(=O)CC(C)(C)C1)C2c1ccc(O)cc1 [KU0194226]
[1]
  DNA Pol: 31
DRC-1, concentration 2.5
  % inhibition Apo pol 10': 1.4755%
  % inhibition Apol 90': 3.436%
  % inhibition apPOL 180': 2.939%
DRC-1, concentration 5
  % inhibition Apo pol 10': 6.619%
  % inhibition Apol 90': 6.7212%
  % inhibition apPOL 180': 5.25%
DRC-1, concentration 10
  % inhibition Apo pol 10': 20.9207%
  % inhibition Apol 90': 20.1854%
  % inhibition apPOL 180': 19.133%
DRC-1, concentration 20
  % inhibition Apo pol 10': 40.5777%
  % inhibition Apol 90': 38.6225%
  % inhibition apPOL 180': 35.7891%
DRC-1, concentration 40
  % inhibition Apo pol 10': 75.7382%
  % inhibition Apol 90': 72.348%
  % inhibition apPOL 180': 67.9328%
DRC-1, concentration 80
  % inhibition Apo pol 10': 84.2344%
  % inhibition Apol 90': 80.6214%
  % inhibition apPOL 180': 76.0012%
DRC-2, concentration 2.5
  % inhibition Apo pol 5': 2.55%
  % inhibition Apol 40': 5.61%
  % inhibition ApPOL 90': 6%
  % inhibition apPOL 180': 5.45%
DRC-2, concentration 5
  % inhibition Apo pol 5': 2.7%
  % inhibition Apol 40': -0.353%
  % inhibition ApPOL 90': -4.67%
  % inhibition apPOL 180': -63%
DRC-2, concentration 10
  % inhibition Apo pol 5': 17%
  % inhibition Apol 40': 23%
  % inhibition ApPOL 90': 27%
  % inhibition apPOL 180': 27%
DRC-2, concentration 20
  % inhibition Apo pol 5': 21%
  % inhibition Apol 40': 31%
  % inhibition ApPOL 90': 34%
  % inhibition apPOL 180': 36%
DRC-2, concentration 40
  % inhibition Apo pol 5': 37%
  % inhibition Apol 40': 52%
  % inhibition ApPOL 90': 57%
  % inhibition apPOL 180': 61%
DRC-2, concentration 80
  % inhibition Apo pol 5': 35%
  % inhibition Apol 40': 59%
  % inhibition ApPOL 90': 65%
  % inhibition apPOL 180': 70%
Primary screen value, DNA Pol
  DNA Pol: 31
